According to ChEMBL document CHEMBL1155587, “Spasmolytic constituents from Eucalyptus camaldulensis var. obtusa leaves” (2000):

Key:
Jejunum [1] = assay: Spasmolytic activity in rabbit jejunum assessed as relaxation of K+-induced muscle contraction at 10 ug/ml relative to calcium; format: functional, Oryctolagus cuniculus
Jejunum [2] = assay: Spasmolytic activity in rabbit jejunum assessed as relaxation of K+-induced muscle contraction at 30 ug/ml relative to calcium; format: functional, Oryctolagus cuniculus

Compound	Ratio (Jejunum [1])	Ratio (Jejunum [2])
CC(=O)O[C@H]1CC[C@]2(C)[C@H]3C=C[C@]45OC(=O)[C@@]6(CC[C@@H](C)[C@H](C)[C@H]64)CC[C@@]5(C)[C@]3(C)CC[C@H]2C1(C)C	6.2	17.51
C[C@H]1[C@H](C)CC[C@@]23CC[C@]4(C)[C@@](C=C[C@@H]5[C@@]6(C)CC[C@H](OC=O)C(C)(C)[C@@H]6CC[C@]54C)(OC2=O)[C@H]13 [CAMALDULIN]	2.03	3.47
